Source: patent US12612387B2, “RAS inhibitors and methods of using the same” (Jazz Pharmaceuticals Ireland Limited, priority 2020, dated 2026)

Legend:
K-RAS G12C = target: T1, K-RAS G12C (Homo sapiens, UniProt P01116, G12C); assay: Compound depletion assay, K-RAS G12C; format: binding; conditions: G12C protein 20 μM, compound 8 μM, 25° C.
T1 construct: His tag; purchased Stratech
Method: (§1) Compound Depletion Assay Method
(§2) Lyophilized human K-RAS (12 Cys) protein (His tag) and human K-RAS (12 Asp) protein (His tag) were purchased from Stratech and reconstituted at 30 μM in water. The protein concentration of K-RAS G12C and K-RAS G12D was adjusted to 20 μM in K-RAS Assay Buffer (20 mM HEPES pH 7.5, 150 mM NaCl, 1 mM MgCl2). A 49 μl aliquot of protein solution was transferred to 1.5 ml eppendorfs and incubated at room temperature for 10 minutes. A 1 μl aliquot of compound solution in DMSO was added to the protein solutions in the 1.5 ml eppendorfs to initiate the reaction, with a final assay compound concentration of 8 μM. Reactions were agitated at 25° C., 700 rpm. At each time point (0, 30, 180, 360, 1440 minutes), 10 μl of the reaction mixture was removed, added to 30 μl quench solution (0.3% formic acid, 75 nM propranolol in acetonitrile) to stop the reaction and stored at 4° C. Once all reactions were quenched, the samples were centrifuged at 16000 g for 10 minutes to pellet the protein and salts. A 10 μl aliquot of supernatant containing compound was diluted in 50:50 acetonitrile:H2O in a 96 well plate. The plates were heat sealed and the samples analysed by LC-MS/MS to determine the concentration of compound remaining in the samples. To determine the reaction progress, the compound signal was normalized to the internal standard signal (propranolol). The decrease in free compound concentration is shown as a percentage over time, with the […] at time zero fixed at one hundred percent. Compound is assumed to be completely depleted when no longer detectable with a double blank sample as reference.

K-RAS G12D = target: T2, K-RAS G12D (Homo sapiens, UniProt P01116, G12D); assay: Compound depletion assay, K-RAS G12D; format: binding; conditions: G12D protein 20 μM, compound 8 μM, 25° C.
T2 construct: His tag; purchased Stratech
Method: as §1, §2

T1 sequence (P01116 1-188 isoform P01116-2 G12C): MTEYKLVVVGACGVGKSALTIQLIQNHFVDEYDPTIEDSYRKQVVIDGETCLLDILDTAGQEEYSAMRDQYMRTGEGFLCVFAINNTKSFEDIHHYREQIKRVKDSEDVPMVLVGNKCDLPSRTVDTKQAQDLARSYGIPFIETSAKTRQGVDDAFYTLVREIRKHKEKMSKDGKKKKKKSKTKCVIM
T2 sequence (P01116 1-188 isoform P01116-2 G12D): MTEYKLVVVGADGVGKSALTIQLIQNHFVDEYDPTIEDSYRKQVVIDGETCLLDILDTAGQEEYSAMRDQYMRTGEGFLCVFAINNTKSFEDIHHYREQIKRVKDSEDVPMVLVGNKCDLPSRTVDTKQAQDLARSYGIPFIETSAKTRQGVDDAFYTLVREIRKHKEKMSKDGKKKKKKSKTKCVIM

SMILES | 3 hr Category (compound remaining at timepoint) (K-RAS G12C) | 6 hr Category (compound remaining at timepoint) (K-RAS G12C) | 30 min Category (compound remaining at timepoint) (K-RAS G12D) | 3 hr Category (compound remaining at timepoint) (K-RAS G12D) | 6 hr Category (compound remaining at timepoint) (K-RAS G12D) | 24 hr Category (compound remaining at timepoint) (K-RAS G12C) | 24 hr Category (compound remaining at timepoint) (K-RAS G12D) | 30 min Category (compound remaining at timepoint) (K-RAS G12C)
C=CC(=O)N1CCN(c2cc(C(=O)Nc3cc(O)cc4ccccc34)nc(NCCC3CCCN3C)n2)C[C@@H]1CC#N (stereo partly drawn) [Example 30, 6-[(3S)-3-(cyanomethyl)-4-prop-2-enoyl-piperazin-1-yl]-N-(3-hydroxy-1-naphthyl)-2-[2-(1-methylpyrrolidin-2-yl)ethylamino]pyrimidine-4-carboxamide] | C (≤30% compound remaining at timepoint) | C (≤30% compound remaining at timepoint) | A (≥70% compound remaining at timepoint) | A (≥70% compound remaining at timepoint) | A (≥70% compound remaining at timepoint) |  |  | B (30%-70% compound remaining at timepoint)
C=CC(=O)N1CCN(c2cc(NC(=O)c3cccc4ccccc34)nc(N3CCN(C)CC3)n2)CC1 [Example 12, N-[2-(4-methylpiperazin-1-yl)-6-(4-prop-2-enoylpiperazin-1-yl)pyrimidin-4-yl]naphthalene-1-carboxamide] | A (≥70% compound remaining at timepoint) |  |  | A (≥70% compound remaining at timepoint) |  | A (≥70% compound remaining at timepoint) | A (≥70% compound remaining at timepoint) | 
C=CC(=O)N1CCN(c2cc(C(=O)Nc3cc(O)cc4ccccc34)nc(NC[C@@H]3CCCN3CCO)n2)C[C@@H]1CC#N [Example 46, 6-[(3S)-3-(cyanomethyl)-4-prop-2-enoyl-piperazin-1-yl]-2-[[(2S)-1-(2-hydroxyethyl)pyrrolidin-2-yl]methylamino]-N-(3-hydroxy-1-naphthyl)pyrimidine-4-carboxamide] | C (≤30% compound remaining at timepoint) | C (≤30% compound remaining at timepoint) | A (≥70% compound remaining at timepoint) | A (≥70% compound remaining at timepoint) | A (≥70% compound remaining at timepoint) |  |  | B (30%-70% compound remaining at timepoint)
C=CC(=O)N1CCN(c2cc(C(=O)Nc3cc(O)cc4ccccc34)nc(OC[C@@H]3CCCN3C(C)C)n2)C[C@@H]1CC#N [Example 54, 6-[(3S)-3-(cyanomethyl)-4-prop-2-enoyl-piperazin-1-yl]-N-(3-hydroxy-1-naphthyl)-2-[[(2S)-1-isopropylpyrrolidin-2-yl]methoxy]pyrimidine-4-carboxamide] | C (≤30% compound remaining at timepoint) | C (≤30% compound remaining at timepoint) | A (≥70% compound remaining at timepoint) | A (≥70% compound remaining at timepoint) | A (≥70% compound remaining at timepoint) |  |  | C (≤30% compound remaining at timepoint)
C=CC(=O)N1CCN(c2cc(C(=O)Nc3cc(O)cc4ccccc34)nc(NCCN(C)C)n2)C[C@@H]1CC#N [Example 29, 6-[(3S)-3-(cyanomethyl)-4-prop-2-enoyl-piperazin-1-yl]-2-[2-(dimethylamino)ethylamino]-N-(3-hydroxy-1-naphthyl)pyrimidine-4-carboxamide] | B (30%-70% compound remaining at timepoint) | C (≤30% compound remaining at timepoint) | A (≥70% compound remaining at timepoint) | A (≥70% compound remaining at timepoint) | A (≥70% compound remaining at timepoint) |  |  | A (≥70% compound remaining at timepoint)
C=CC(=O)N1CCN(c2cc(C(=O)Nc3cccc4ccccc34)nc(OC[C@@H]3CCCN3C)n2)CC1 [Example 01, 2-[[(2S)-1-methylpyrrolidin-2-yl]methoxy]-N-(1-naphthyl)-6-(4-prop-2-enoylpiperazin-1-yl)pyrimidine-4-carboxamide] | A (≥70% compound remaining at timepoint) |  |  | A (≥70% compound remaining at timepoint) |  | B (30%-70% compound remaining at timepoint) | A (≥70% compound remaining at timepoint) | 
C=CC(=O)N1CCN(c2cc(C(=O)Nc3cc(O)cc4ccccc34)nc(NCCN3CCN(C)CC3)n2)C[C@@H]1CC#N [Example 27, 6-[(3S)-3-(cyanomethyl)-4-prop-2-enoyl-piperazin-1-yl]-N-(3-hydroxy-1-naphthyl)-2-[2-(4-methylpiperazin-1-yl)ethylamino]pyrimidine-4-carboxamide] | B (30%-70% compound remaining at timepoint) | C (≤30% compound remaining at timepoint) | A (≥70% compound remaining at timepoint) | A (≥70% compound remaining at timepoint) | A (≥70% compound remaining at timepoint) |  |  | A (≥70% compound remaining at timepoint)

The next lines start with results.

3 hr Category (compound remaining at timepoint) (K-RAS G12C) | 6 hr Category (compound remaining at timepoint) (K-RAS G12C) | 30 min Category (compound remaining at timepoint) (K-RAS G12D) | 3 hr Category (compound remaining at timepoint) (K-RAS G12D) | 6 hr Category (compound remaining at timepoint) (K-RAS G12D) | 24 hr Category (compound remaining at timepoint) (K-RAS G12C) | 24 hr Category (compound remaining at timepoint) (K-RAS G12D) | SMILES | 30 min Category (compound remaining at timepoint) (K-RAS G12C)
A (≥70% compound remaining at timepoint) |  |  | A (≥70% compound remaining at timepoint) |  | A (≥70% compound remaining at timepoint) | A (≥70% compound remaining at timepoint) | C=CC(=O)N1CCN(c2cc(C(=O)N3CCOc4ccccc43)nc(OC[C@@H]3CCCN3C)n2)CC1 [Example 16, 1-[4-[6-(2,3-dihydro-1,4-benzoxazine-4-carbonyl)-2-[[(2S)-1-methylpyrrolidin-2-yl]methoxy]pyrimidin-4-yl]piperazin-1-yl]prop-2-en-1-one] | 
C (≤30% compound remaining at timepoint) | C (≤30% compound remaining at timepoint) |  | A (≥70% compound remaining at timepoint) |  | C (≤30% compound remaining at timepoint) | A (≥70% compound remaining at timepoint) | C=CC(=O)N1CCN(c2cc(C(=O)Nc3cc(O)cc4ccccc34)nc(OC[C@@H]3CCCN3C)n2)CC1 [Example 03, N-(3-hydroxy-1-naphthyl)-2-[[(2S)-1-methylpyrrolidin-2-yl]methoxy]-6-(4-prop-2-enoylpiperazin-1-yl)pyrimidine-4-carboxamide] | B (30%-70% compound remaining at timepoint)
A (≥70% compound remaining at timepoint) |  |  | A (≥70% compound remaining at timepoint) |  | A (≥70% compound remaining at timepoint) | A (≥70% compound remaining at timepoint) | C=CC(=O)N1CCN(c2cc(C(=O)Nc3c(C)ccc4ncccc34)nc(OC[C@@H]3CCCN3C)n2)CC1 [Example 19, 2-[[(2S)-1-methylpyrrolidin-2-yl]methoxy]-N-(6-methyl-5-quinolyl)-6-(4-prop-2-enoylpiperazin-1-yl)pyrimidine-4-carboxamide] | 
A (≥70% compound remaining at timepoint) |  |  | A (≥70% compound remaining at timepoint) |  | A (≥70% compound remaining at timepoint) | A (≥70% compound remaining at timepoint) | C=CC(=O)N1CCN(c2cc(C(=O)Nc3cccc4ccccc34)nc(N3CCN(C)CC3)n2)CC1 [Example 20, 2-(4-methylpiperazin-1-yl)-N-(1-naphthyl)-6-(4-prop-2-enoylpiperazin-1-yl)pyrimidine-4-carboxamide] | 
A (≥70% compound remaining at timepoint) |  |  | A (≥70% compound remaining at timepoint) |  | A (≥70% compound remaining at timepoint) | A (≥70% compound remaining at timepoint) | C=CC(=O)N1CCN(c2cc(C(=O)Nc3ccc(O)cc3)nc(OC[C@@H]3CCCN3C)n2)CC1 [Example 05] | 
